Experimental data taken from patent publication US12667547B2 (MESHABERASE, LLC, priority 2013, dated 2026).
Entries after “also recorded” stand apart in the source; their conditions may differ. Read-outs that look alike come from different tables or passages of the source.

How the values were obtained:
[1] = cited from earlier work
[2] = molecular target: T1, MMP-1 (Homo sapiens, UniProt P03956); assay: MMP profiling, IC50 (fluorimetric MMP inhibitor profiling kit); format: biochemical
T1 construct: purchased Enzo Life Science, Farmingdale, NY
T1 sequence (P03956 100-469): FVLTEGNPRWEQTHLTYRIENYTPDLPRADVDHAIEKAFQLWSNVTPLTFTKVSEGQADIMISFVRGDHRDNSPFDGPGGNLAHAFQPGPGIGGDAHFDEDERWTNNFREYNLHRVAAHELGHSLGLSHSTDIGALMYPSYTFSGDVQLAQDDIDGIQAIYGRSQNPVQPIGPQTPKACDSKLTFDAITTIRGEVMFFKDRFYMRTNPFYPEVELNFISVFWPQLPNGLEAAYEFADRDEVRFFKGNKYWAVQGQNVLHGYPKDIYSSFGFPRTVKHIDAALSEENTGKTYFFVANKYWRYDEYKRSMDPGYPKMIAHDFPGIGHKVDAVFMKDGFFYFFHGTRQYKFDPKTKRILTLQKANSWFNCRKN
Procedure: (§1) After administration of fluorogenic substrate, a velocity of fluorescent increase was measured using excitation/emission=320/405 nm.

[3] = molecular target: T2, MMP-3 (Homo sapiens, UniProt P08254); assay: as above; format: biochemical
T2 construct: purchased Enzo Life Science, Farmingdale, NY
T2 sequence (P08254 100-477): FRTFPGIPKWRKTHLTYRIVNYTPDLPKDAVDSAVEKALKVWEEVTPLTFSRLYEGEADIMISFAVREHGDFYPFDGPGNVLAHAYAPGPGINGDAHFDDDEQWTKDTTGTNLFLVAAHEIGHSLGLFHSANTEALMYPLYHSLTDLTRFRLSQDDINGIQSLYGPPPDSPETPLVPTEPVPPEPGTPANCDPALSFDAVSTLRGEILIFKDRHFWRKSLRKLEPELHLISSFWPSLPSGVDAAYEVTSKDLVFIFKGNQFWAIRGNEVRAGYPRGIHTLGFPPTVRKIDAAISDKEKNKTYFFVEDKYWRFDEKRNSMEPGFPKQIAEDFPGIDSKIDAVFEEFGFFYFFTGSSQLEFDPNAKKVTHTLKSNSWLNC
Procedure: as §1

[4] = molecular target: T3, MMP-14 (Homo sapiens, UniProt P50281); assay: as above; format: biochemical
T3 construct: purchased Enzo Life Science, Farmingdale, NY
Procedure: as §1

[5] = molecular target: T4, MMP-8 (Homo sapiens, UniProt P22894); assay: as above; format: biochemical
T4 construct: purchased Enzo Life Science, Farmingdale, NY
T4 sequence (P22894 101-467): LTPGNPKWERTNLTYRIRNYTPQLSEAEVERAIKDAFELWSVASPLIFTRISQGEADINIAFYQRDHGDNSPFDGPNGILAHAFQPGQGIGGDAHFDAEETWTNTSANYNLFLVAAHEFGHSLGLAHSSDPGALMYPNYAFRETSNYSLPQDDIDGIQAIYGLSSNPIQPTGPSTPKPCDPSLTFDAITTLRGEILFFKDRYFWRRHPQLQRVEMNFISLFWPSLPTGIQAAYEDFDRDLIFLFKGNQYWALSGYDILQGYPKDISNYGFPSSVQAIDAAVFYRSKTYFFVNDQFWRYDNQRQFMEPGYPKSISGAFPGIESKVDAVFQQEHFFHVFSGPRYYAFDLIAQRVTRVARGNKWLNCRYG
Procedure: as §1

[6] = molecular target: T5, MMP-10 (Homo sapiens, UniProt P09238); assay: as above; format: biochemical
T5 construct: purchased Enzo Life Science, Farmingdale, NY
T5 sequence (P09238 99-476): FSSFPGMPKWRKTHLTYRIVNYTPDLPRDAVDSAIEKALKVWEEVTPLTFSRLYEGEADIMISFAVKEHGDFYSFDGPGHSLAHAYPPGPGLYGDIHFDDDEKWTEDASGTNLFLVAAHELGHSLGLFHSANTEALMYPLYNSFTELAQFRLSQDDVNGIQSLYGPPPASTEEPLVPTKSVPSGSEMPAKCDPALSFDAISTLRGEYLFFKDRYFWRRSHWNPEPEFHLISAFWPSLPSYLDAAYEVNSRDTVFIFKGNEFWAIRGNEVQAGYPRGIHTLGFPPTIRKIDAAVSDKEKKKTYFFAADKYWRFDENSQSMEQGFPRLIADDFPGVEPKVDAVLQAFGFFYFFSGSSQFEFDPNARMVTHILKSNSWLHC
Procedure: as §1

[7] = molecular target: T6, MMP-13 (Homo sapiens, UniProt P45452); assay: as above; format: biochemical
T6 construct: purchased Enzo Life Science, Farmingdale, NY
Procedure: as §1

[8] = molecular target: T7, MMP-7 (Homo sapiens, UniProt P09237); assay: as above; format: biochemical
T7 construct: purchased Enzo Life Science, Farmingdale, NY
T7 sequence (P09237 95-267): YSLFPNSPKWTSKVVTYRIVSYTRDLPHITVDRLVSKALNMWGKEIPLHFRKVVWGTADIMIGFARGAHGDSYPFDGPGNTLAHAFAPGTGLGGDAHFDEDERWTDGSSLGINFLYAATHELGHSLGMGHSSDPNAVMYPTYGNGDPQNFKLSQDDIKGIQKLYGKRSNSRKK
Procedure: as §1

[9] = molecular target: T8, MMP-9 (Homo sapiens, UniProt P14780); assay: as above; format: biochemical
T8 construct: purchased Enzo Life Science, Farmingdale, NY
T8 sequence (P14780 94-707): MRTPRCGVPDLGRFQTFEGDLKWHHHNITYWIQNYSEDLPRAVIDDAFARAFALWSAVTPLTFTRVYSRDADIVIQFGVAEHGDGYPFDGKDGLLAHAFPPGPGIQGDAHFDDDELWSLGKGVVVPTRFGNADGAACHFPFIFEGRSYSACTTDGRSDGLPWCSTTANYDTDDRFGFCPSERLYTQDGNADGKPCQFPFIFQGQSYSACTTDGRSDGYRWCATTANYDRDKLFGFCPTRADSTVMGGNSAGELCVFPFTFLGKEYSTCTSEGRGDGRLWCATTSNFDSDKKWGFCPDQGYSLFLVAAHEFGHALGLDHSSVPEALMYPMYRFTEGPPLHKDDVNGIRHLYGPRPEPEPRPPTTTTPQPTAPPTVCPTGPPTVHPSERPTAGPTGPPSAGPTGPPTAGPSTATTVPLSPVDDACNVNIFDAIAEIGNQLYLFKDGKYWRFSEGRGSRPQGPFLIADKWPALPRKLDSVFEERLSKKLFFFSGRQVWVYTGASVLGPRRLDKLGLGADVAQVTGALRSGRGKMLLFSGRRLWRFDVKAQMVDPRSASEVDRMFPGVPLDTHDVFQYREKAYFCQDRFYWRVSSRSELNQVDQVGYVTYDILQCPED
Procedure: as §1

[10] = molecular target: T9, MMP-12 (Homo sapiens, UniProt P39900); assay: as above; format: biochemical
T9 construct: purchased Enzo Life Science, Farmingdale, NY
T9 sequence (P39900 106-470): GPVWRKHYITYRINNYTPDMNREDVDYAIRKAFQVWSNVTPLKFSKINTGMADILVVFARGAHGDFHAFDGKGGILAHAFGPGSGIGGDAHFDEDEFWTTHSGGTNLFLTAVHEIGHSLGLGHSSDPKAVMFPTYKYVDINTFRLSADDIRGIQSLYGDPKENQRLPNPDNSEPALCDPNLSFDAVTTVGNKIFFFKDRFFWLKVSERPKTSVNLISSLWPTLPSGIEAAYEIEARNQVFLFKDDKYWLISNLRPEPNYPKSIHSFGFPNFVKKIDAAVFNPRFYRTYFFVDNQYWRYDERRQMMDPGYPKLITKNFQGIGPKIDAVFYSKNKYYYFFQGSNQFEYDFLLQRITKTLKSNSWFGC
Procedure: as §1

[11] = molecular target: T10, MMP-2 (Homo sapiens, UniProt P08253); assay: as above; format: biochemical
T10 construct: purchased Enzo Life Science, Farmingdale, NY
T10 sequence (P08253 110-660): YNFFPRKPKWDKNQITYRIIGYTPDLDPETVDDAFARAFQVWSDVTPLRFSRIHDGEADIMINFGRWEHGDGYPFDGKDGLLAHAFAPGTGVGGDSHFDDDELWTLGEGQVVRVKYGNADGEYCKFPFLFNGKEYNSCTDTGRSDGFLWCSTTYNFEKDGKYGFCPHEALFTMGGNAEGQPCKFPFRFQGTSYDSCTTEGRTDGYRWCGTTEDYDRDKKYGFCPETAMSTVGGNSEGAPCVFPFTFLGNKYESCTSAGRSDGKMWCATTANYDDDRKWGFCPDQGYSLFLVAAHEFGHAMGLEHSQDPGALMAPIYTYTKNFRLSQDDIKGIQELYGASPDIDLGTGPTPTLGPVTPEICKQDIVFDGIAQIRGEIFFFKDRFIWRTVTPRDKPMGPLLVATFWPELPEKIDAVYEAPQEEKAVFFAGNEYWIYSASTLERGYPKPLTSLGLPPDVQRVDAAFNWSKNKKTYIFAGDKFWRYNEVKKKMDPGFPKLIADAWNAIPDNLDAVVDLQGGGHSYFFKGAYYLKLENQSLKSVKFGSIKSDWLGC
Procedure: as §1

[12] = test system: pancreatic cancer cell lines; assay: Cell migration assay (wound healing); format: cell-based, human
Procedure: Cell Migration Assay: Cell migration assay is a classical wound healing assay (25). For this assay, cells were cultured in 10 cm petri dishes until they were completely confluent. […] Five random fields were selected and pictures were taken using an inverted microscope. The average area (mm 2) of the gap between the cell layers was calculated using IPLab imaging software (BD Biosciences-Bioimaging, Rockville, MD). […] For the migration assay, a wound healing assay was used (described above in Example 1).

[13] = test system: MMP-9; assay: ELISA of MMP-9 protein in pancreatic cancer cell lines; format: cell-based, human; conditions: highest concentration (5 mM), both cell lines
Procedure: Enzyme-Linked ImmunoSorbent Assay (ELISA): The NIMP-9 protein level was determined using Human total MMP-9 DuoSet kit (R&D systems, Emeryville, CA) following the manufacturer's instruction. Ten microgram of total protein was aliquoted in each well and the MMP-9 concentration was determined by the colorimetric method. […] Since MMP-9 plays a central role in pancreatic cancer invasion, MMP-9 mRNA and protein levels were examined in both cell lines.

[14] = cited from earlier work; remark: listed apart in the source
[15] = test system: T11, MMPs; assay: MMP profiling, summary over the whole MMP panel; format: biochemical
T11 construct: rows headed: anti-MMP activity, IC50 range
Procedure: as §1
(§2) Since MMP-9 plays a central role in pancreatic cancer invasion, MMP-9 mRNA and protein levels were examined in both cell lines.

[16] = test system: T12, MMPs; assay: MMP profiling, summary over the whole MMP panel; format: biochemical; conditions: MMP-1 to MMP-14 of Table 1; read-out: IC50 against each MMP enzymatic activity (span over the panel)
T12 construct: rows headed: IC50 against each MMP enzymatic activity (span over the panel)
Procedure: as §1, §2

[17] = test system: MMP-9; assay: qRT-PCR of MMP-9 mRNA in pancreatic cancer cell lines; format: cell-based, human; conditions: highest concentration (5 mM), both cell lines
Procedure: (§3) Quantitative Reverse transcription-PCR (qRT-PCR): qRT-PCR was performed as described previously using QuantiTect SYBR Green PCR Kits (QIAGEN, Valencia, CA) (28). Gene specific primers for human MMP-9, MMP-12, MMP-14 and I3-actin were either purchased from QIAGEN or synthesized at the CBER core facility. Gene expression was normalized to β-actin before the fold change in gene expression was determined.
as §2

[18] = test system: MMP-9; assay: ELISA of MMP-9 protein in primary orthotopic tumors; format: in vivo, mice; conditions: tumors harvested day 30
Procedure: Enzyme-Linked ImmunoSorbent Assay (ELISA): The NIMP-9 protein level was determined using Human total MMP-9 DuoSet kit (R&D systems, Emeryville, CA) following the manufacturer's instruction. Ten microgram of total protein was aliquoted in each well and the MMP-9 concentration was determined by the colorimetric method.

[19] = test system: H5766T tumor; assay: Orthotopic pancreatic cancer mouse model: metastasis, ascites, survival; format: in vivo, mice
Procedure: (§4) Measurement of metastasis, survival and body weight of animals implanted with orthotopic pancreatic cancer in mouse model: Female nude nu/nu mice between ages 5 and 6 weeks were maintained in a barrier facility in HEPA-filtered rack. All animal studies were conducted under approved protocol #2000-06 by the CBER Institutional Animal Care and Use Committee in accordance with the principles and procedures outlined in the NIH Guideline for the Care and Use of Laboratory Animals. For orthotopic tumor cell injection, the pancreas was carefully exposed, and 2.0×10^6 of MIA-PaCa2 and H5766T cells were injected into the organ. The pancreas was then returned to the peritoneal cavity, and the abdominal wall and skin were closed with skin clips (29, 30). […] At day 30, mice were sacrificed and the number of metastatic nodules visible by naked eye and whose sizes were >5 mm in diameter counted. The total weight of primary tumor and metastatic nodules were also measured. Pictures were taken immediately after sacrificing the animals. Additionally, mouse survival time was monitored in an independent experiment. Mice were sacrificed when they had severe ascites or cachexia.
(§5) At day 30, the number and weight of the primary tumor and metastatic nodules were measured. […] The survival of mice among different treatment groups was also determined.

[20] = test system: MIA-PaCa2 tumor; assay: as above; format: in vivo, mice
Procedure: as §4, §5

[21] = test system: MMP-12; assay: qRT-PCR of MMP-12 mRNA in pancreatic cancer cell lines; format: cell-based, human; conditions: highest concentration, in vitro
Procedure: as §3, §2

[22] = test system: intracellular cystine; conditions: cited from earlier work
[23] = in vivo; cited from earlier work
[24] = test system: MMP-9; assay: Gelatin gel zymography of cell lysates; format: cell-based, human; conditions: cell lines in vitro, dose dependent
Procedure: (§6) Briefly, 50 μg of total protein was electrophoresed on 10% SDS-PAGE containing 0.1% gelatin as substrate. After washing with 1% Triton X-100 in 50 mM Tris/HCl, pH 7.5 for 1 hr to remove SDS, the gels were incubated overnight at 37° C. in 50 mM Tris/HCl, pH 7.5, containing 150 mM NaCl, 10 mM CaCl2 and 0.1% Triton X-100, prior to staining with simply blue safe stain. The gels were washed with deionized water at room temperature. […] Relevant band intensities were quantified by scanning densitometric analysis and normalized to cell number.
as §2

[25] = test system: MMP-14; assay: qRT-PCR of MMP-14 mRNA in pancreatic cancer cell lines; format: cell-based, human; conditions: highest concentration, in vitro
Procedure: as §3, §2

[26] = test system: MMP-9; assay: Zymography for MMP-9 in primary orthotopic tumors; format: in vivo, mice; conditions: tumors harvested day 30
Procedure: as §6

[27] = test system: MMP-9; assay: qRT-PCR of MMP-9 mRNA in primary orthotopic tumors; format: in vivo, mice; conditions: tumors harvested day 30
Procedure: as §3

[28] = General condition, body weight, serum enzymes and histology of treated tumor-bearing mice; format: in vivo
Procedure: as §4
Measurement of enzymes in mouse serum: Mouse blood was collected from the tail vein. Serum levels of alanine aminotransferase (ALT), creatine kinase (CK), aldolase and creatinine (Cr) were measured using different kits obtained from Pointe Scientific, Inc. (Canton, MI) and Caldon Biotech, Inc. (Vista, Ca), following the manufacturer's instruction.
The general condition and body weight of mice throughout the experimental period was also monitored. […] Similarly, there was no alteration in serum enzymes representing liver function (ALT) or muscle damage (Aldolase) nor evidence of skeletal muscle damage or kidney function (creatinine kinase and creatinine) in the cysteamine-treated groups.

[29] = test system: MMPs; assay: MMP activity in pancreatic cancer cell lines (fluorogenic peptide substrate); format: cell-based, human; conditions: two representative cell lines, concentration-dependent
Procedure: (§7) Measurement of MMP activity: MMPs activity was measured by Mca-KPLGL-Dpa-AR-NH2 Fluorogenic Peptide Substrate (R&D systems, Emeryville, CA). Total cell protein from each pancreatic cancer cell line was collected using lysis buffer (containing 50 mM Tris-HCl, 10 mM CaCl2, 0.05% Brij35 and 0.25% Triton-X) without an MMP inhibitor. Substrate and 10 μg of total cell protein in the buffer were mixed in a black-wall 96-well plate. After 1 hour incubation, fluorescence units were determined using excitation/emission=320/405 nm.

[30] = test system: MMPs; assay: MMP activity in primary orthotopic tumors; format: in vivo, mice; conditions: H5766T and MIA-PaCa2 tumors, 100 and 250 mg/Kg, day 30
Procedure: as §7

[31] = test system: pancreatic cancer cell lines; assay: Matrigel invasion assay; format: cell-based, human
Procedure: Matrigel invasion assay: Cell invasion was assayed in BD BioCoat Matrigel invasion chambers (BD Biosciences; 24 wells, 8 μm pore size) as described previously (26). […] Non-invaded cells were removed from the upper surface of the membrane with a cotton swab, and cells on the lower surface of the membrane were fixed and stained with H&E. Three random fields per chamber were counted. Data were shown as mean±S.D. of triplicate determinations. […] For this assay, ten different pancreatic cancer cell lines in a matrigel invasion chamber were used.

[32] = test system: MMPs; conditions: not tested in Table 1; cited from earlier work
[33] = delivery to the small intestine (WO 2007/089670)

CNC(=O)[C@H](Cc1ccccc1)NC(=O)[C@H](CC(C)C)[C@H](CSc1cccs1)C(=O)NO [Batimastat]
oral bioavailability ([1]; in vivo, po): poor oral bioavailability

NCCS [Cysteamine]
IC50 [2]: 290 µM | IC50 [3]: 330 µM | IC50 [4]: 91 µM | IC50 [5]: 240 µM | IC50 [6]: 310 µM | IC50 [7]: 460 µM | IC50 [8]: 40 µM | IC50 [9]: 200 µM | IC50 [10]: 60 µM | IC50 [11]: 38 µM | concentration at which cell migration was significantly inhibited ([12]; all ten cell lines, 24 hours): ≥ 0.05 mM | concentration that sufficiently inhibited cancer cell migration in vitro ([12]; discussion): 50 µM | protein level of MMP-9 [13]: modestly increased; also recorded: modestly to moderately upregulated | AUC [14, 33]: increases AUC | cysteamine plasma level ([14]; oral, every 6 hours, 60 to 90 mg/kg of body weight per day): ≤ 50 µM | anti-MMP activity, IC50 range [15]: high μM range | IC50 [16]: 38 to 460 µM | mRNA level of MMP-9 [17]: modestly increased; also recorded: modestly to moderately upregulated | protein level of MMP-9 in primary tumors [18]: did not affect | mouse survival time ([19]; 100 mg/kg/day, FIG. 1A): significantly prolonged | decrease in number of metastases ([19]; 250 mg/kg/day s.c., day 30): ~90% | number of metastases ([19]; 250 mg/kg/day s.c., day 30 (control 34)): 3.6 | ascites in peritoneal cavity ([19]; 100 and 250 mg/kg/day): no mice developed ascites | number of metastatic nodules ([19]; dose-dependent, day 30): significantly decreased | size and weight of the primary tumor vs control ([19]; s.c. twice daily from day 4, day 30): did not show any difference | mouse survival time ([20]; MIA-PaCa2, 100 mg/kg/day, FIG. 1B): significantly prolonged | ascites in peritoneal cavity ([20]; MIA-PaCa2, 100 and 250 mg/kg/day): no mice developed ascites | number of metastatic nodules ([20]; MIA-PaCa2, dose-dependent, day 30): significantly decreased | decrease in total weight of metastatic nodules ([20]; MIA-PaCa2, highest dose (250 mg/kg/day), day 30): ~90% | size and weight of the primary tumor vs control ([20]; MIA-PaCa2, s.c. twice daily from day 4, day 30): did not show any difference | mRNA of MMP-12 [21]: modest increase; also recorded: modestly upregulated | time to decrease in leukocyte cystine [22, 33]: within an hour | depletion of intracellular cystine ([22]; taken regularly, circulating white blood cells): up to 90% | adverse effects in subjects [23]: only gastrointestinal symptoms | zymographic gelatin hydrolyzing activity, pro and active MMP-9 [24]: decreased significantly; also recorded: dose dependent decrease | mRNA of MMP-14 [25]: modest increase; also recorded: modestly upregulated | gelatinase activity, zymography for MMP-9, primary tumors [26]: dose dependent decrease | mRNA level of MMP-9 in primary tumors [27]: did not affect | dose tolerated without visible, biochemical or histological evidence of toxicity ([28]; mice): up to 250 mg/kg/day | organ toxicity by histological examination ([28]; mouse, in vivo): no organ toxicity | serum ALT (liver function) ([28]; mouse, in vivo): no alteration | serum Aldolase (muscle damage) ([28]; mouse, in vivo): no alteration | serum creatinine (kidney function) ([28]; mouse, in vivo): no alteration | serum creatinine kinase ([28]; mouse, in vivo): no alteration | adverse effects (general appearance, body weight, muscle damage, serum enzymes, serum creatinine) ([28]; mouse, in vivo, 250 mg/kg/day): no adverse effects | MMP activity in pancreatic cancer cell lines [29]: inhibited | MMPs activity in primary orthotopic tumors [30]: decreased | lowest concentration that significantly inhibited cell invasion ([31]; all ten pancreatic cancer cell lines, 24 hours): 0.05 mM | concentration that sufficiently inhibited cancer cell invasion in vitro ([31]; discussion): 50 µM

CNC(=O)[C@@H](NC(=O)[C@H](CC(C)C)[C@H](O)C(=O)NO)C(C)(C)C [marimastat]
clinical toxicity ([1]; higher dosage, patients with breast cancer metastasis): high musculoskeletal toxicities | anti-MMP activity, IC50 range [32]: nM to low μM
